18 compounds from patent US12202818B2, “Compounds and methods for CD73 modulation and indications therefor” (Opna Bio SA, priority 2020, dated 2025) can be followed below.

The target of test [1] is T1, human CD73 (Homo sapiens, UniProt P21589).
T1 construct: expressed in transfected cells
T1 sequence (P21589 27-549): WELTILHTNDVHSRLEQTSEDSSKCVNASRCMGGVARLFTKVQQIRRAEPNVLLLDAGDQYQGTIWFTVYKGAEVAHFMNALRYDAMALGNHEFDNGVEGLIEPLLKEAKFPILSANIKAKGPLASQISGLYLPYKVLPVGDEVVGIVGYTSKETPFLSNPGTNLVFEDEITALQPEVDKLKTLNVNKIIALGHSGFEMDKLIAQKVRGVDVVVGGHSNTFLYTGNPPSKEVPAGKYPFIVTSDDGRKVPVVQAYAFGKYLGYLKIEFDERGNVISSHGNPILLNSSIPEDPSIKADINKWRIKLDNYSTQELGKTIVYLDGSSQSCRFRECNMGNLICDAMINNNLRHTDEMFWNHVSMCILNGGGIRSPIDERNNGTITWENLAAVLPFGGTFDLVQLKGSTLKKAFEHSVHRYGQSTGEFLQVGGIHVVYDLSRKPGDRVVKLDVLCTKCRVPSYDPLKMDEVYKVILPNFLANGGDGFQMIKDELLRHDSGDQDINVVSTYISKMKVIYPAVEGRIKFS
As to the kind of experiment: Inhibitor activity against CD73 in cell based assay (CD73 expressing CHO-K1 cells). As to conditions: CHO-K1 cells expressing human CD73, 150 μM AMP, 4 hours of incubation; read-out: CHO-K1 CELL_VARIANT: CD73 IC50. On the procedure: Determine Inhibitor Activity Against CD73 in Cell Based Assay
CD73 expressing CHO-K1 cell clones were generated upon stable transfection of a plasmid expressing human CD73 under the control of CMV promoter. Cells were selected in Ham's F-12K (Kaighn's) media supplemented with 10% fetal bovine serum and 1 mg/ml G418 at 37° C. in a humidified incubator supplied with 5% CO2. The assays were performed as follows. Cells were seeded in a 96 well plate in 50 μL of culture media at a density of 1×10^4 per well. Compound at a maximal concentration of 5 mM was serially diluted 1:3 in DMSO for a total of 8 point titration. A 2 μL aliquot of each dilution point was added to […] culture media and 25 µL was added to each well, providing 10 μM compound at the maximum concentration point. AMP was diluted in culture media and 25 μL was added to each well with a final concentration of 150 μM. 4 wells containing 0.2% DMSO treated cells and AMP served as high controls and 4 wells containing media only with 0.2% DMSO and AMP served as low controls. After 4 hours of incubation, 20 μL of the supernatant was transferred to a 384 well plate. AMP level in supernatant was measured indirectly by adding 5 μL of CellTiter-Glo® 2.0 reagent and 5 μL of ATP with a final concentration of 1 μM. Following incubation of plate at room temperature for 30 minutes, luminescent signal was read on a Tecan plate reader. The percentage inhibition at individual concentrations relative to high and low controls was calculated. The data were analyzed by using nonlinear regression to generate ICso values.

The target in test [2] is T2, Human CD73 (amino acid residues 27-549) (Homo sapiens, UniProt P21589).
T2 construct: Human CD73 (amino acid residues 27-549); His tag (N); made in house; host or cells: E. coli
T2 sequence (P21589 27-549): T1 sequence (P21589 27-549)
Description: CD73 enzymatic assay (luciferase-based indirect assay, CellTiter-Glo). The test is classed as biochemical. The following applies: 0.4 nM CD73, 150 μM AMP, 1 hour at room temperature. Here is the method:
CD73 enzymatic activity was measured in a luciferase-based indirect assay using CellTiter-Glo® system from Promega. The luciferase reaction in the presence of ATP is inhibited by AMP, a primary substrate of CD73. Addition of CD73 enzyme to the reaction converts AMP to adenosine, and release the inhibition, producing a luminescent signal. Inhibition of CD73 leads to the decrease of this luminescent signal.
Human CD73 (amino acid residues 27-549) with N-Terminal His tag was purified in E. coli. All the assay components were prepared in 50 mM HEPEs buffer (pH 7.4) with 0.01% Tween-20. The CD73 enzymatic assay was performed using 0.4 nM CD73 and 150 μM AMP. 9.5 μL of CD73 protein and 9.5 μL of AMP were added to the wells of a 384 well plate containing lpL of various concentrations of test compound or DMSO vehicle and incubated for 1 hour at room temperature. 16 wells containing CD73, AMP and 5% DMSO served as high control. 16 wells containing AMP and 5% DMSO served as low control. Enzymatic reaction was stopped and AMP level was measured indirectly by adding 5 μL of CellTiter-Glo® 2.0 reagent and 5 μL of ATP with a final concentration of 1 μM. Following incubation of the plate at room temperature for 30 minutes, luminescent signal was read on a Tecan plate reader. The percentage inhibition at individual concentrations relative to high and low controls was calculated. The data were analyzed by using nonlinear regression to generate IC50 values.

On to `Cc1nn(CC(C)(C)O)c(C)c1-c1ccnc(O[C@H]2CN(c3cn[nH]c(=O)c3Cl)C[C@@H]2F)c1` [P-0021, 4-chloro-5-((3S,4S)-3-fluoro-4-((4-(1-(2-hydroxy-2-methylpropyl)-3,5-dimethyl-1H-pyrazol-4-yl)pyridin-2-yl)oxy)pyrrolidin-1-yl)pyridazin-3(2H)-one], for which the IC50 in test [1] and in test [2] was 0.001 to 10 µM each time.

`Cc1nn(C2CC2)c(C)c1-c1ccnc(O[C@@H]2CCN(c3cn[nH]c(=O)c3Cl)C2)c1` [P-0022, (R)-4-chloro-5-(3-((4-(1-cyclopropyl-3,5-dimethyl-1H-pyrazol-4-yl)pyridin-2-yl)oxy)pyrrolidin-1-yl)pyridazin-3(2H)-one]: the IC50 in test [1] and in test [2] was 0.001 to 10 µM each time.

Regarding `O=c1c(Cl)c(N2CC[C@@H](Oc3cc(C4CCNCC4)ccn3)C2)cnn1CCO` [P-0023, (R)-4-chloro-2-(2-hydroxyethyl)-5-(3-((4-(piperidin-4-yl)pyridin-2-yl)oxy)pyrrolidin-1-yl)pyridazin-3(2H)-one], the IC50 in test [1] and in test [2] was 0.001 to 10 µM each time.

Consider `O=c1[nH]ncc(N2CC[C@@H](Oc3cc(N4CCC5(CC4)CC(F)(F)C5)ccn3)C2)c1Cl` [P-0024, (R)-4-chloro-5-(3-((4-(2,2-difluoro-7-azaspiro[3.5]nonan-7-yl)pyridin-2-yl)oxy)pyrrolidin-1-yl)pyridazin-3(2H)-one], for which the IC50 in test [1] and in test [2] was 0.001 to 10 µM throughout.

With `O=C(NC1CCOCC1)c1ccnc(O[C@@H]2CCN(c3cn[nH]c(=O)c3Cl)C2)c1` [P-0025, (R)-2-((1-(5-chloro-6-oxo-1,6-dihydropyridazin-4-yl)pyrrolidin-3-yl)oxy)-N-(tetrahydro-2H-pyran-4-yl)isonicotinamide], the IC50 in test [1] and in test [2] was 0.001 to 10 µM throughout.

With `Cc1nn(C2CCC2)c(C)c1-c1ccnc(O[C@@H]2CCN(c3cn[nH]c(=O)c3Cl)C2)c1` [P-0026, (R)-4-chloro-5-(3-((4-(1-cyclobutyl-3,5-dimethyl-1H-pyrazol-4-yl)pyridin-2-yl)oxy)pyrrolidin-1-yl)pyridazin-3(2H)-one], the IC50 in test [1] and in test [2] was 0.001 to 10 µM each time.

As to `Cc1nn(C(C)C)c(C)c1-c1ccnc(O[C@@H]2CCN(c3cn[nH]c(=O)c3Cl)C2)c1` [P-0027, (R)-4-chloro-5-(3-((4-(1-isopropyl-3,5-dimethyl-1H-pyrazol-4-yl)pyridin-2-yl)oxy)pyrrolidin-1-yl)pyridazin-3(2H)-one], the IC50 in test [1] and in test [2] was 0.001 to 10 µM throughout.

For `COC(=O)C1C2CCC1CN(c1ccnc(O[C@@H]3CCN(c4cn[nH]c(=O)c4Cl)C3)c1)C2` (stereo partly drawn) [P-0028, methyl 3-(2-(((R)-1-(5-chloro-6-oxo-1,6-dihydropyridazin-4-yl)pyrrolidin-3-yl)oxy)pyridin-4-yl)-3-azabicyclo[3.2.1]octane-8-carboxylate], the IC50 in test [1] and in test [2] was 0.001 to 10 µM throughout.

On to `CS(=O)(=O)N1CC=C(c2ccnc(O[C@@H]3CCN(c4cn[nH]c(=O)c4Cl)C3)c2)CC1` [P-0029, (R)-4-chloro-5-(3-((1′-(methylsulfonyl)-1′,2′,3′,6′-tetrahydro-[4,4′-bipyridin]-2-yl)oxy)pyrrolidin-1-yl)pyridazin-3(2H)-one], for which the values for the IC50 in test [1] and in test [2] were 10 to 100 µM and 0.001 to 10 µM, respectively.

For the compound `N#CCC1CCN(c2ccnc(O[C@@H]3CCN(c4cn[nH]c(=O)c4Cl)C3)c2)CC1` [P-0030, (R)-2-(1-(2-((1-(5-chloro-6-oxo-1,6-dihydropyridazin-4-yl)pyrrolidin-3-yl)oxy)pyridin-4-yl)piperidin-4-yl)acetonitrile], the IC50 in test [1] and in test [2] was 0.001 to 10 µM each time.

With `O=c1[nH]ncc(N2CC[C@@H](Oc3cc(C4CCC(O)CC4)ccn3)C2)c1Cl` (stereo partly drawn) [P-0031, (R)-4-chloro-5-(3-((4-(4-hydroxycyclohexyl)pyridin-2-yl)oxy)pyrrolidin-1-yl)pyridazin-3(2H)-one], the 50% inhibitory concentration (IC50) in test [1] and in test [2] was 0.001 to 10 µM each time.

With `O=c1[nH]ncc(N2CC[C@@H](Oc3cc(C4=CCNC4)ccn3)C2)c1Cl` [P-0032, (R)-4-chloro-5-(3-((4-(2,5-dihydro-1H-pyrrol-3-yl)pyridin-2-yl)oxy)pyrrolidin-1-yl)pyridazin-3(2H)-one], the IC50 in test [1] and in test [2] was 0.001 to 10 µM in each case.

Regarding `Cc1nn(C2(CC#N)COC2)c(C)c1-c1ccnc(O[C@@H]2CCN(c3cn[nH]c(=O)c3Cl)C2)c1` [P-0033, (R)-2-(3-(4-(2-((1-(5-chloro-6-oxo-1,6-dihydropyridazin-4-yl)pyrrolidin-3-yl)oxy)pyridin-4-yl)-3,5-dimethyl-1H-pyrazol-1-yl)oxetan-3-yl)acetonitrile], the IC50 in test [1] and in test [2] was 0.001 to 10 µM throughout.

For the compound `Cc1nn(CC23CC(C#N)(C2)C3)c(C)c1-c1ccnc(O[C@@H]2CCN(c3cnn(CCO)c(=O)c3Cl)C2)c1` [P-0034, (R)-3-((4-(2-((1-(5-chloro-1-(2-hydroxyethyl)-6-oxo-1,6-dihydropyridazin-4-yl)pyrrolidin-3-yl)oxy)pyridin-4-yl)-3,5-dimethyl-1H-pyrazol-1-yl)methyl)bicyclo[1.1.1]pentane-1-carbonitrile], the IC50 in test [1] and in test [2] was 0.001 to 10 µM in each case.

As for `Cc1nn(C2(CC(N)=O)CCC2)c(C)c1-c1ccnc(O[C@@H]2CCN(c3cn[nH]c(=O)c3Cl)C2)c1` [P-0035, (R)-2-(1-(4-(2-((1-(5-chloro-6-oxo-1,6-dihydropyridazin-4-yl)pyrrolidin-3-yl)oxy)pyridin-4-yl)-3,5-dimethyl-1H-pyrazol-1-yl)cyclobutyl)acetamide], the IC50 in test [1] and in test [2] was 0.001 to 10 µM each time.

For the compound `Cc1nn(C2(CC#N)CCC2)c(C)c1-c1ccnc(O[C@@H]2CCN(c3cn[nH]c(=O)c3Cl)C2)c1` [P-0036, (R)-2-(1-(4-(2-((1-(5-chloro-6-oxo-1,6-dihydropyridazin-4-yl)pyrrolidin-3-yl)oxy)pyridin-4-yl)-3,5-dimethyl-1H-pyrazol-1-yl)cyclobutyl)acetonitrile], the IC50 in test [1] and in test [2] was 0.001 to 10 µM each time.

Turning to `Cc1nn(CC(C)(C)O)c(C)c1-c1cc(O[C@@H]2CCN(c3cn[nH]c(=O)c3Cl)C2)ncn1` [P-0037, (R)-4-chloro-5-(3-((6-(1-(2-hydroxy-2-methylpropyl)-3,5-dimethyl-1H-pyrazol-4-yl)pyrimidin-4-yl)oxy)pyrrolidin-1-yl)pyridazin-3(2H)-one], the half-maximal inhibitory concentration (IC50) in test [1] and in test [2] was 0.001 to 10 µM throughout.

Take `Cc1nn(CC(C)(C)O)c(C)c1-c1ccnc(O[C@@H]2CCN(c3cn[nH]c(=O)c3Cl)C2)c1` [P-0038, (R)-4-chloro-5-(3-((4-(1-(2-hydroxy-2-methylpropyl)-3,5-dimethyl-1H-pyrazol-4-yl)pyridin-2-yl)oxy)pyrrolidin-1-yl)pyridazin-3(2H)-one]: the IC50 in test [1] and in test [2] was 0.001 to 10 µM throughout.
